From patent US20250177351A1, “ISOINDOLINE COMPOSITIONS AND METHODS FOR TREATING NEURODEGENERATIVE DISEASE” (Cognition Therapeutics, Inc., priority 2022, published 2025)
Marks after values point to notes of the source that are not given here.

Legend:
[1] = Phase 1 MAD study: cognitive testing in healthy elderly cohort; assay type: in vivo, human; conditions: 560 mg for 14 days (N = 7)
Method: The Alzheimer's Disease Assessment Scale-Cognition Subscale (ADAS-Cog 13) and a cognitive battery (including the category fluency test, controlled word association test, WMS-R digit span, digit symbol substitution test, and Rey Auditory Verbal Learning Test) were administered to subjects in the elderly cohort at baseline and on Day 14.

[2] = Phase 1 single ascending dose (SAD)/food-effect study: plasma pharmacokinetics; assay type: in vivo, human
Method: A Phase 1, two-part single and multiple ascending dose study was conducted in 7 and 4 cohorts of healthy human subjects respectively. […] In Part B, subjects were administered 280, 560, and 840 mg once daily for 14 days (8:2 A:P per cohort). An elderly cohort, age 65-75, was dosed at 560 mg once daily for 14 days (7:2 A:P). […] Cognitive testing was performed in the healthy elderly cohort at baseline and at Day 14 of treatment.
Part A was a single ascending dose cohort study in which healthy, young subjects (less than 65 years old) received one dose of study drug in the morning after an overnight fast. Cohort dosing started at 10 mg and increased to 30 mg, 90 mg, 180 mg, 450 mg, and 1120 mg in subsequent cohorts. Six drug-treated and two placebo-treated subjects were randomized in each cohort. A seventh cohort of six subjects each received a single 90 mg dose of drug 30 min. after a meal. Following completion of all safety assessments and blood draws for PK analyses, subjects were discharged on Day 3.
In Part A, blood draws for assessment of PK parameters occurred pre-dose and at 15, 30, 45, 60, and 90 minutes post dose as well as at 2, 3, 4, 8, 12, 24, 36, and 48 hours post dose. […] In Part B, blood samples for plasma PK analysis were taken on Day 1 at pre-dose and at 2 hours post-dose, on Day 3 at pre-dose and at 15, 30 and 45 minutes and 1, 2, 3, 4, 8, 12 and 24 hours post-dose, on Days 4, 6, 8 and 10 at pre-dose and at 1.5 hours post-dose and following the final dose on Day 14 at pre-dose and 15, 30 and 45 minutes and 1, 2, 4, 8, 12, 24, 36 and 48 hours post-dose.
This was assessed by analysis of variance (ANOVA) of log-transformed Cmax, AUC0-24, AUC0-48, and/or AUC0-inf, using a model with factors for treatment (fed status or age [young vs. elderly] status) and subject within sequence. Treatment mean differences and 90% confidence intervals of the log transformed PK parameters were back-transformed, to present the geometric least squares means ratios and 90% confidence limits.

CC(C)(C)Oc1cc(CCC(C)(C)N2Cc3ccc(S(C)(=O)=O)cc3C2)ccc1O [CT1812]
COWAT (Trial 2), Mean (SD) ([1]; Day 14, Day 0: 9.6 (4.2)): 10.6 (5.1) | COWAT (Trial 1), Mean (SD) ([1]; Day 14, Day 0: 11.3 (5.7)): 12.6 (4.5) | COWAT (Trial 3), Mean (SD) ([1]; Day 14, Day 0: 14.6 (5.7)): 15.1 (3.7) | RAVLT, Mean (SD) ([1]; Day 14, Day 0: 17.3 (3.9)): 18.7 (3.1) | WMS-R (Digit Span), Mean (SD) ([1]; Day 14, Day 0: 17.9 (3.3)): 17.9 (3.3) | CFT, Mean (SD) ([1]; Day 14, Day 0: 18.4 (5.5)): 19.7 (2.4) | DSST, Mean (SD) ([1]; Day 14, Day 0: 78.3 (11.0)): 80 (9.6) | exposure based on AUC, fed vs. fasted ([2]; 90 mg): no significant difference | t1/2 ([2]; SAD fasted 10 mg, Day 1, plasma, mean (n = 5)): 12.0^‡ hr | t1/2 ([2]; SAD fasted 450 mg (n = 6), plasma, mean): 12.2 h | increase of Cmax and AUC with dose ([2]; SAD, 10 mg to 1120 mg): slightly greater than dose proportionally | AUC0-48h lower under fed vs fasted conditions (geometric least-squares mean) ([2]; single 90 mg oral dose): ~20% | AUC0-inf lower under fed vs fasted conditions (geometric least-squares mean) ([2]; single 90 mg oral dose): ~20% | Cmax lower under fed vs fasted conditions (geometric least-squares mean) ([2]; single 90 mg oral dose): approximately 40%
